28 compounds from patent US7723329B2, “Substituted-3-sulfonylindazole derivatives as 5-hydroxytryptamine-6 ligands” (Wyeth LLC, priority 2005, dated 2010) can be followed below.

The structures appear in SMILES notation. Where a name gives a salt, the structure may show the parent alone. Bounds are passed on as bounds.

The target of this assay is T1, human cloned 5-HT6 receptors (Homo sapiens, UniProt P50406).
T1 construct: expressed in transfected cells; host or cells: HeLa cells
Put plainly: 5-HT6 binding affinity, [3H]-LSD displacement. To be noted: membranes of Hela cells expressing human cloned 5-HT6 receptors; [3H]-LSD 3.0 nM; 120 minutes at room temperature. On the procedure: The affinity of test compounds for the serotonin 5-HT6 receptor was evaluated in the following manner. Cultured Hela cells expressing human cloned 5-HT6 receptors were harvested and centrifuged at low speed (1,000×g) for 10.0 minutes to remove the culture media. The harvested cells were suspended in half volume of fresh physiological phosphate buffered saline solution and recentrifuged at the same speed. This operation was repeated. The collected cells were then homogenized in ten volumes of 50 mM Tris.HCl (pH 7.4) and 0.5 mM EDTA. The homogenate was centrifuged at 40,000×g for 30.0 min and the precipitate was collected. The obtained pellet was resuspended in 10 volumes of Tris.HCl buffer and recentrifuged at the same speed. The final pellet was suspended in a small volume of Tris.HCl buffer and the tissue protein content was determined in aliquots of 10-25 μl volumes. […] The volume of the suspended cell membranes was adjusted to give a tissue protein concentration of 1.0 mg/ml of suspension. The prepared membrane suspension (10 times concentrated) was aliquoted in 1.0 ml volumes and stored at −70° C. until used in subsequent binding experiments.
The bound complex caught on the filter disk was allowed to air dry and the radioactivity is measured in a Packard TopCount® equipped with six photomultiplier detectors, after the addition of 40.0 μl Microscint®-20 scintillant to each shallow well. The unifilter plate was heat-sealed and counted in a PackardTopCount® with a tritium efficiency of 31.0%.
Specific binding to the 5-HT6 receptor was defined as the total radioactivity bound less the amount bound in the presence of 10.0 μM unlabeled methiothepin. Binding in the presence of varying concentrations of test compound was expressed as a percentage of specific binding in the absence of test compound. The results were plotted as log % bound versus log concentration of test compound. […] A linear regression line of data points was plotted, from which the IC50 value is determined and the Ki value is determined based upon the following equation: Ki=IC50/(1+L/KD) where L was the concentration of the radioactive ligand used and KD is the dissociation constant of the ligand for the receptor, both expressed in nM.

T1 sequence (P50406 whole entry): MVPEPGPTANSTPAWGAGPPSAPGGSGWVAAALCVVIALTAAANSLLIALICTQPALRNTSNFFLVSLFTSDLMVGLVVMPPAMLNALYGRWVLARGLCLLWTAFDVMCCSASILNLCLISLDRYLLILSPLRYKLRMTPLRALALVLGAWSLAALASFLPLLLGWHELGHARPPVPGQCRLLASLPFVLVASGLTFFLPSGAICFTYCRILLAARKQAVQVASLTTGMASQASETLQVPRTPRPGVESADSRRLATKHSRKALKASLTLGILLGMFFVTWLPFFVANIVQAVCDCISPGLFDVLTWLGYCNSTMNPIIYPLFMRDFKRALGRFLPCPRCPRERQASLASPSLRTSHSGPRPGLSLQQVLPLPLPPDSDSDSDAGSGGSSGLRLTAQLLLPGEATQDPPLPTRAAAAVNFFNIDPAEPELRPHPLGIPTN

On to `O=S(=O)(c1ccccc1)c1nn(Cc2cccc(Cl)c2)c2c(OCCN3CCCC3)cccc12` [Example 86], for which the inhibitory constant (Ki) – broadly, a measure of affinity in units of concentration, obtained from inhibition or displacement – is 26 to 35 nM.

On to `O=S(=O)(c1ccccc1)c1nn(Cc2cccc(Cl)c2)c2c(OCCN3CCCCC3)cccc12` [Example 87], for which the Ki is above 45 nM.

The compound `CNCCOc1cccc2c(S(=O)(=O)c3ccccc3)n[nH]c12` [Example 88] yielded a Ki of 0.01 to 10 nM.

`CCNCCOc1cccc2c(S(=O)(=O)c3ccccc3)n[nH]c12` [Example 89]: the Ki fell in the range of 0.01 to 10 nM.

On to `CCN(CC)CCOc1cccc2c(S(=O)(=O)c3ccccc3)n[nH]c12` [Example 90], for which the inhibitory constant (Ki) is 0.01 to 10 nM.

`CCCCNCCOc1cccc2c(S(=O)(=O)c3ccccc3)n[nH]c12` [Example 91] came in with a Ki of 0.01 to 10 nM.

`O=S(=O)(c1ccccc1)c1n[nH]c2c(OCCN3CCCC3)cccc12` [Example 92] gave an inhibitory constant (Ki) of 0.01 to 10 nM.

`O=S(=O)(c1ccccc1)c1n[nH]c2c(OCCN3CCCCC3)cccc12` [Example 93] displayed a Ki of 0.01 to 10 nM.

As to `CCNCCOc1cccc2c(S(=O)(=O)c3cccc4ccccc34)nn(C)c12` [Example 95], the Ki is 0.01 to 10 nM.

As for `CN(C)CCOc1cccc2c(S(=O)(=O)c3cccc4ccccc34)nn(C)c12` [Example 96], the inhibition constant (Ki) was above 45 nM.

For the compound `CCN(CC)CCOc1cccc2c(S(=O)(=O)c3cccc4ccccc34)nn(C)c12` [Example 97], the Ki fell in the range of 0.01 to 10 nM.

`CCCCNCCOc1cccc2c(S(=O)(=O)c3cccc4ccccc34)nn(C)c12` [Example 98] registered an inhibition constant (Ki) of 26 to 35 nM.

On to `Cn1nc(S(=O)(=O)c2cccc3ccccc23)c2cccc(OCCN3CCCCC3)c21` [Example 99], for which the Ki was 0.01 to 10 nM.

On to `Cn1nc(S(=O)(=O)c2cccc3ccccc23)c2cccc(OCCN3CCCC3)c21` [Example 100], for which the inhibition constant Ki is 11 to 25 nM.

As to `CNCCOc1cccc2c(S(=O)(=O)c3ccccc3)nn(C)c12` [Example 101], the inhibition constant Ki lay in the range of 11 to 25 nM.

`CCNCCOc1cccc2c(S(=O)(=O)c3ccccc3)nn(C)c12` [Example 102] displayed a Ki of 26 to 35 nM.

As to `CCN(CC)CCOc1cccc2c(S(=O)(=O)c3ccccc3)nn(C)c12` [Example 103], the inhibition constant Ki was above 45 nM.

`Cn1nc(S(=O)(=O)c2ccccc2)c2cccc(OCCN3CCCC3)c21` [Example 104] returned an inhibitory constant (Ki) of 26 to 35 nM.

Take `Cn1nc(S(=O)(=O)c2ccccc2)c2cccc(OCCN3CCCCC3)c21` [Example 105]: the inhibitory constant (Ki) is above 45 nM.

As to `NCCOc1cc(F)cc2c(S(=O)(=O)c3cccc4ccccc34)nn(Cc3cccc(Cl)c3)c12` [Example 106, (2-{[1-(3-Chlorobenzyl)-5-fluoro-3-(1-naphthylsulfonyl)-1H-indazol-7-yl]oxy}ethyl)amine], the Ki is above 45 nM.

`CNCCOc1cc(F)cc2c(S(=O)(=O)c3cccc4ccccc34)nn(Cc3cccc(Cl)c3)c12` [Example 107, (2-{[1-(3-chlorobenzyl)-5-fluoro-3-(1-naphthylsulfonyl)-1H-indazol-7-yl]oxy}ethyl)methylamine Hydrochloride] registered a Ki above 45 nM.

`CCNCCOc1cc(F)cc2c(S(=O)(=O)c3cccc4ccccc34)nn(Cc3cccc(Cl)c3)c12` [Example 108] yielded a Ki above 45 nM.

As to `CN(C)CCOc1cc(F)cc2c(S(=O)(=O)c3cccc4ccccc34)nn(Cc3cccc(Cl)c3)c12` [Example 109], the Ki lay within 11 to 25 nM.

`CCN(CC)CCOc1cc(F)cc2c(S(=O)(=O)c3cccc4ccccc34)nn(Cc3cccc(Cl)c3)c12` [Example 110] gave a Ki above 45 nM.

Turning to `O=S(=O)(c1cccc2ccccc12)c1nn(Cc2cccc(Cl)c2)c2c(OCCN3CCCCC3)cc(F)cc12` [Example 111], the Ki was above 45 nM.

As for `O=S(=O)(c1cccc2ccccc12)c1nn(Cc2cccc(Cl)c2)c2c(OCCN3CCCC3)cc(F)cc12` [Example 112], the inhibition constant Ki was above 45 nM.

As to `CNCCOc1cc(F)cc2c(S(=O)(=O)c3cccc4ccccc34)n[nH]c12` [Example 113], the Ki is 0.01 to 10 nM.

`CCNCCOc1cc(F)cc2c(S(=O)(=O)c3cccc4ccccc34)n[nH]c12` [Example 114] registered a Ki of 0.01 to 10 nM.
